“Also recorded” adds a separate entry of the source.
What was measured:
CD31 = CD31 immunohistochemical staining of gastric tumor mass after local injection; conditions: one week after injection
HUVECs [1] = test: LDH release assay in HUVECs; format: cell-based, human; conditions: 1 mM, 5 mM and 10 mM 5-FU, P<0.05, FIG. 4
Method: To investigate whether the administration of 5-fluorouracil (5-FU) enhances apoptosis in endothelial cells, an LDH release assay was conducted in human umbilical vein endothelial cells (HUVECs). Cytotoxicity was assessed based on the amount of lactate dehydrogenase (LDH) released due to cell membrane damage. The released LDH was quantified using an LDH assay kit (EZ-LDH1000; DoGenBio, Seoul, Korea) according to the manufacturer's protocol.
HUVECs (5×10^4 cells/well) were seeded in a 96-well polystyrene plate and incubated at 37° C. for 24 hours. LDH substrate was added to each well, followed by an additional incubation at 37° C. for 10 minutes. The plate was centrifuged at 600 g for 5 minutes. A 10-μL aliquot of the supernatant was transferred from the culture plate wells to an analysis plate. Subsequently, 100 μL of LDH reaction mixture reagent was added to the supernatant in each well of the analysis plate. After a 30-minute reaction, absorbance was measured at 450 nm using a microplate reader (Model 680; Bio-Rad). The cytotoxicity of 5-FU on HUVECs was determined based on the amount of LDH released.

[2] = Pathological changes in subcutaneous muscle layer after injection (H&E); format: in vivo, nude mice; design: key: 0=absent; 1=mild; 2=moderate; 3=severe; conditions: 5 mg pH 8.4 5-FU near the tumor; 24 hours; degeneration, necrosis, inflammation, fibrosis
Method: To observe pathological changes in the surrounding tissue after injecting 5 mg of pH 8.4 5-FU near the tumor, the drug was locally administered to nude mice. After 24 hours, tissues, including muscle layers, were collected and subjected to H&E staining to examine degeneration, necrosis, inflammation, and fibrosis in the muscle layer. The extent of each pathological change was scored as follows: 0=absent, 1=mild, 2=moderate, 3=severe, and the results are shown in FIG. 10A and FIG. 10B. FIG. 10A presents observations at 40× magnification, while FIG. 10B presents observations at 100× magnification.

VEGF = VEGF immunohistochemical staining of gastric tumor mass after local injection; conditions: one week after injection
HUVECs [3] = test: MTS cell proliferation assay, 5-FU at different pH; format: cell-based, human; conditions: 5 μM 5-FU, pH 6.4, 7.4, 8.4, 9.0, FIG. 5
Method: To evaluate the cytotoxic effect of 5-fluorouracil (5-FU) in human umbilical vein endothelial cells (HUVECs) under different pH conditions, an MTS cell proliferation assay was performed. The cytotoxicity of 5 μM 5-FU at various pH levels in HUVECs was assessed using the CellTiter 96 AQueous One Solution Cell Proliferation Assay (Promega Corp., Madison, WI, USA).
HUVECs were seeded in a 96-well plate at a density of 5×10^3 cells/well and incubated for 24 hours. Subsequently, the cells were cultured for an additional 24 hours in Dulbecco's Modified Eagle's Medium (DMEM) containing 5-FU at different pH conditions (pH 6.4, 7.4, 8.4, and 9.0). Following the incubation, the cells were washed twice with phosphate-buffered saline (PBS), after which 100 μL of fresh DMEM growth medium was added, followed by an additional 48-hour incubation. The medium was then replaced with 100 μL of fresh DMEM growth medium, and 20 μL of 3-(4,5-dimethylthiazol-2-yl)-5-(3-carboxymethoxyphenyl)-2-(4-sulfophenyl)-2H-tetrazolium (MTS) solution (Promega Corp., Madison, WI, USA) was added. After an additional 2-hour incubation, the absorbance was measured at 490 nm using a microplate reader (Model 680, BIO-RAD; Spark, TECAN, CA, USA).

TSP-1 protein = test: Western blot of TSP-1 protein expression in HUVEC; format: cell-based, human; conditions: HUVECs; prolonged exposure and higher 5-FU concentrations; FIG. 3
Method: Western blot analysis was conducted to confirm the expression of TSP-1 protein in the HUVEC (human umbilical vein endothelial cell) cell line.
HUVECs cultured in petri dishes were lysed using a buffer containing 50 mM Tris (pH 8.0), 150 mM NaCl, 1% Nonidet P-40, 0.5% sodium deoxycholate (SDC), 0.1% sodium dodecyl sulfate (SDS), and 1× protease inhibitor cocktail. The lysates were incubated on ice for 30 minutes, followed by centrifugation at 14,000 g for 10 minutes to collect the supernatant.
Protein quantification was performed using a bicinchoninic acid (BCA) protein assay kit (Pierce Chemical, Rockford, IL, USA). A total of 30 μg of protein was subjected to electrophoresis on a 10% SDS-polyacrylamide gel and subsequently transferred onto a nitrocellulose membrane. The membrane was blocked with blocking milk for 1 hour, then incubated with the same TSP-1 antibody used for immunostaining at room temperature for 1 hour. After three washes with Tris buffer containing 0.1% Tween 20 at 15-minute intervals, the membrane was incubated with a secondary antibody specific to the primary antibody at room temperature for 1 hour. The detection was carried out using a chemiluminescent substrate (Amersham Life Science, Arlington Heights, IL, USA).
Protein extracted from HUVECs was used as a positive control.

HUVECs [4] = conditions: various concentrations of L-NMMA, FIG. 11
Method: HUVECs were seeded at a density of 5×10^3 cells/well in a 96-well plate and incubated for 24 hours. Subsequently, the cells were incubated in DMEM medium containing various concentrations of L-NMMA for 24 hours. The cells were then washed twice with PBS, followed by the addition of 100 μL of fresh growth DMEM medium, and incubated for an additional 48 hours. The medium was replaced with 100 μL of fresh growth DMEM medium, after which 20 μL of 3-(4,5-dimethylthiazol-2-yl)-5-(3-carboxymethoxyphenyl)-2-(4-sulfophenyl)-2H-tetrazolium (MTS) was added. After an additional 2-hour incubation, absorbance at 490 nm was measured using a BIO-RAD Model 680 microplate reader (Spark, TECAN, CA, USA).

[5] = test system: human gastric cancer cells; test: Human gastric cancer xenograft, alkaline 5-FU injected adjacent to tumor; format: in vivo, nude mice; conditions: 5 mg 5-FU pH 8.4, adjacent to tumor, three times at one-week intervals; P<0.05
Method: The animals used in the experiment were six male nude mice (Crj: BALB/c-nu/nu mice, male) aged five weeks and weighing approximately 30 grams, purchased from Orient. The mice were subjected to a one-week acclimation period in the laboratory before use. Each nude mouse was subcutaneously xenografted with 5×10^6 human gastric cancer cells suspended in 100 μL of PBS on the dorsal subcutaneous layer. The tumor size was periodically measured, and when it reached a diameter of 1 cm, the drug administration experiment was conducted.
The experimental animals were divided into two groups. One group served as the control group, receiving only physiological saline, while the other group was administered 5 mg of 5-FU at pH 8.4. The drug was injected 0.2 cc adjacent to the tumor three times at one-week intervals. After one month, the major and minor axes of the tumors growing on the dorsal epidermis were measured.

[6] = test system: human gastric cancer cells; test: Human gastric cancer xenograft, bevacizumab; format: in vivo, nude mice
Method: The animals used in the experiment were three male nude mice (Crj: BALB/c-nu/nu, male), each weighing approximately 30 g and five weeks old, produced by Orient. The mice underwent a one-week acclimatization period in the laboratory before use. Human gastric cancer cells (5×10^6 cells/100 μL in PBS) were xenografted into the subcutaneous fat layer on the dorsal side of each nude mouse. The tumor size was measured periodically, and drug administration was initiated when the tumor reached a diameter of 1 cm.
The experimental animals were administered 1 mg of bevacizumab by injecting 0.2 cc adjacent to the tumor three times at one-week intervals.

[7] = 5 mg 5-FU at base of tumor, relative to total tissue area

## O=c1[nH]cc(F)c(=O)[nH]1 [5-FU, 5-fluorouracil]
CD31; 5 mg 5-FU at base of tumor
  Immunopositive area (CD31): 257079.525 μm^2
CD31; [7]
  Immuno-positive area (%) (CD31): 0.54%
CD31; 5 mg 5-FU
  stained area (ratio) of CD31 compared to control group: lower; also recorded: smaller
CD31; 5 mg 5-FU, tumor mass
  distribution of necrotic tissue compared to control group: increased
HUVECs [1]
  amount of LDH released: increased in a time-dependent manner
[2]
  pathological changes in subcutaneous muscle layer at injection site (score): 0
VEGF; 5 mg 5-FU at base of tumor
  Immunopositive area (VEGF): 46077.917 μm^2
VEGF; [7]
  Immuno-positive area (%) (VEGF): 0.10%
VEGF; 5 mg 5-FU
  stained area of VEGF compared to control group: smaller
HUVECs [3]
  cytotoxic effect according to pH: significantly greater toxicity under alkaline conditions compared to neutral or acidic 5-FU
TSP-1 protein
  TSP-1 expression: increased

## CNC(=N)NCCC[C@H](N)C(=O)O [L-NMMA, NG-Monomethyl-L-arginine]
HUVECs [4]
  cell viability, L-NMMA alone: reduction in cell viability

## O=c1[nH]cc(F)c(=O)[nH]1 [alkaline 5-FU, 5-fluorouracil]
[5]
  tumor size compared to control group that received PBS: reduced
  tumor size four weeks after drug administration compared to before injection: decreased

## bevacizumab: recombinant humanized monoclonal antibody designed to inhibit vascular endothelial growth factor (VEGF)
[6]; 1 mg bevacizumab adjacent to tumor, three times at one-week intervals, P>0.05
  tumor size four weeks after drug administration compared to before injection: remained nearly unchanged
[6]; 1 mg bevacizumab, months after the four-week reading
  tumor size in later follow-up: did not change for the following two months and began to increase in the third month
